{"source": "paper PMC7316388", "about": "(European journal of cell biology, 2010)", "target": "CREB (Mus musculus, UniProt Q01147)", "sequence (Q01147 whole entry)": "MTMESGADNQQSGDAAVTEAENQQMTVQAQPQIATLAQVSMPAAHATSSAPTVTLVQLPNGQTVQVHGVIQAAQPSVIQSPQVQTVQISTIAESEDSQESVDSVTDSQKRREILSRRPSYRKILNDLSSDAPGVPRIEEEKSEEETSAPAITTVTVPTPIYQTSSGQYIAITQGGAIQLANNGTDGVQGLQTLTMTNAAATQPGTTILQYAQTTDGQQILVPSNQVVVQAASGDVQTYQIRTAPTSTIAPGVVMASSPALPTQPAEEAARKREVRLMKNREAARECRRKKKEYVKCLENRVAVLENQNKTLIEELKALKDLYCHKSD", "experiment": "chromatin immunoprecipitation, CREB binding to c-fos promoter", "assay_type": "cell-based", "conditions": "100 μM compound with lipofectamine, 24 h, NIH3T3 cells"}
{"smiles": "O=S(=O)(O)c1cc[c]([Sb](=[O])([OH])[OH])cc1", "note": "[NSC13746]", "values": [{"measurement": "% reduction in CREB DNA binding at 100 μM", "result": 30, "unit": "%"}]}
